For assay [1], the system named is MR20 multiple myeloma cells. Nature of the assay: MTT conversion assay, MR20. Format: cell-based, human. To be noted: 48 hrs treatment. Here is the method: (§1) In particular, Enone-1 and Enone-2 were tested for cytotoxic activity in 17 cell lines representing a broad spectrum of human tumors. They include human colorectal carcinoma (Caco2, RKO, HCT15, HT29), liver (HepG2), lung (A549), ovarian carcinoma (A2780, 2780CP, AGE60, SKOV3), anaplastic large cell lymphoma (Mac1 and Mac2a), breast carcinoma (MDA-MB-231), cervical (HeLa), bladder cancer (VM-CUB-1), melanoma (BRO), and multiple myeloma (MR20).
(§2) Each assay was performed in triplicate and repeated in 2-3 independent experiments. Specifically, to measure cell survival, 20 μl of 10 mg/ml MTT (3-([…])-2,5-diphenyl tetrazolium bromide; Sigma) was added to each well and the plates were incubated at 37° C. in 5% CO2 for 3 hours. The supernatant was removed and the formed crystals were dissolved in 200 μl dimethyl sulphoxide. The plates were then analysed at 450 nm on a plate reader. Growth inhibition (reduction in survival) was calculated by expressing the differences in optical densities between treatment wells and control wells as a percentage of the control.

In assay [2] the test system is HCT15 colorectal carcinoma cells. Nature of the assay: MTT conversion assay, HCT15. Format: cell-based, human. The following applies: 48 hrs treatment. Here is the method: as §1, §2
The next assay concerns HepG2 liver cells. Nature of the assay: MTT conversion assay, HepG2. It is filed as cell-based, human. To be noted: 48 hrs treatment. How it is done: as §1, §2
Assay [3] concerns VM-CUB-1 bladder cancer cells. The assay is described as follows: MTT conversion assay, VM-CUB-1. Format: cell-based, human. The following applies: 48 hrs treatment. Here is the method: as §1, §2
For orientation: Tetrazolium dyes change colour on reduction, which living cells bring about.

Assay [4] relates to HT29 colorectal carcinoma cells. The assay is described as follows: MTT conversion assay, HT29. To be noted: 48 hrs treatment. It is filed as cell-based, human. Here is the method: as §1, §2
Assay [5] has as its system SKOV3 ovarian carcinoma cells. Nature of the assay: MTT conversion assay, SKOV3. Format: cell-based, human. Here is the method:
as §1, §2

For a further assay, the system named is BRO melanoma cells. Nature of the assay: MTT conversion assay, BRO. Format: cell-based, human. To be noted: 48 hrs treatment. How it is done:
as §1, §2

A further assay relates to A549 lung cells. Nature of the assay: MTT conversion assay, A549. Format: cell-based, human. To be noted: 48 hrs treatment. Here is the method:
as §1, §2

In assay [6] the test system is A2780 ovarian cancer cells. The assay is described as follows: PrestoBlue cell viability assay. It is filed as cell-based, human. The following applies: 72 hrs treatment, n=3 experiments. Here is the method:
The effects of Enone-1 and Enone-2 on cancer cells were confirmed using a second methodology, namely the PrestoBlue assay (PrestoBlue™ Cell Viability Reagent, Thermo Fisher, Catalog number: A13261), a cell permeable resazurin-based solution that functions as a cell viability indicator. A2780 ovarian cancer cells were plated as described above for the MTT assays and Enone drugs were added at increasing concentrations as indicated in FIG. 2. Cell viability was determined 72 hrs later following the addition of PrestoBlue, according to the manufacturer's instructions (Thermo Fisher).

The subject of assay [7] is A2780 ovarian carcinoma cells. The assay is described as follows: MTT conversion assay, A2780. Format: cell-based, human. To be noted: 48 hrs treatment. Here is the method:
as §1, §2

Assay [8] relates to Caco-2 colorectal carcinoma cells. Nature of the assay: MTT conversion assay, Caco-2. It is filed as cell-based. To be noted: Homo sapiens, Caco-2, colon, 48 hrs treatment. How it is done:
as §1, §2

For assay [9], the system named is p53. Nature of the assay: p53 immunoblot in A2780 cells. Format: cell-based, human. The following applies: 2.5 μM or increasing concentrations, 6 hrs or time course. How it is done:
(§3) FIG. 8: Enones induce the p53 pathway. […] Cell lysates were analyzed for p53 and GAPDH (loading control). (B) A2780 cells were cultured in the presence or absence of 2.5 μM for the indicated time points before being analyzed for p53 and GAPDH levels. (C) Treatment of A2780 cells with 2.5 μM Enone-2 results in the up-regulation of p53-regulated genes (*p<0.05; **p<0.01; ***p<0.001, n=4). (D) Induction of p53 accumulation in AGE60 ovarian carcinoma cells following 6 or 14 hr exposure to 2.5 μM Enone-2. (E) Enone-1 induces the p53 pathway in A2780 cells which were cultured in the presence of 2.5 μM of the drug and analyzed as in (B). (F) Treatment of A2780 cells with 2.5 μM Enone-2 results in the up-regulation of p53-regulated genes (*p<0.05; **p<0.01; ***p<0.001, n=3).
(§4) The effects of Enone-2 on p53 and p53-dependent transcription of cell cycle and cell death-associated genes was confirmed by immunoblotting for p53 and by reverse transcription qPCR (RT-qPCR) for mdm2, p21, bax and bbc3/puma, established p53 target genes.
Background: A western blot detects proteins with antibodies after separation by electrophoresis.

Assay [10] relates to AGE60 ovarian carcinoma cells. Nature of the assay: MTT conversion assay, AGE60. The following applies: 48 hrs treatment. Format: cell-based, human. How it is done: as §1, §2
Assay [11] relates to 2780CP, a cis-platin-resistant derivative of A2780. Nature of the assay: MTT conversion assay, 2780CP. It is filed as cell-based, human. To be noted: for IC50: 2780CP, ovarian, cis-platin-resistant, 48 hrs treatment, MTT; for sensitivity of 2780CP cells compared with cis-platin-sensitive A2780 cells: MTT conversion assays. How it is done: as §1, §2
Resistance to platinum-based chemotherapy is a major problem in oncology that impacts therapeutic options and limits patient survival. This is relevant to several types of malignancy, including ovarian cancer where platinum resistance frequently occurs. As Enone-1 and 2 show efficacy in reducing survival of A2780 ovarian carcinoma cells, the drugs were also tested in 2780CP, a cis-platin-resistant derivative of A2780 [13].

The subject of assay [12] is mdm2, p21, bax and bbc3/puma. The assay is described as follows: RT-qPCR of p53 target genes in A2780 cells. Format: cell-based, human. The following applies: 2.5 μM. Here is the method:
as §3, §4
Background: Quantitative PCR measures a nucleic acid by following its amplification.

The test system of assay [13] is MB49 mouse bladder carcinoma cells. The assay is described as follows: MTT assay, MB49. Format: cell-based. The following applies: 48 hrs. How it is done: FIG. 5: Effects of enone compounds on mouse tumor growth.
as §2
First, the impact of Enone-1 and Enone-2 on the survival of MB49 cells was verified by MTT assays performed as described in FIG. 1.

The subject of assay [14] is RKO colorectal carcinoma cells. The assay is described as follows: MTT conversion assay, RKO. Format: cell-based, human. To be noted: colon, 48 hrs treatment. Here is the method: as §1, §2
For assay [15], the system named is HeLa cervical carcinoma cells. Nature of the assay: MTT conversion assay, HeLa. It is filed as cell-based, human. To be noted: 48 hrs treatment. Here is the method:
as §1, §2

The subject of assay [16] is MDA-MB-231 breast carcinoma cells. Nature of the assay: MTT conversion assay, MDA-MB-231. It is filed as cell-based, human. To be noted: 48 hrs treatment. Here is the method:
as §1, §2

Assay [17] deals with p53. The assay is described as follows: siRNA knockdown of Chek2 or Rpl11 and drug-induced p53 activation in A2780 cells. It is filed as cell-based, human. The following applies: A2780 transiently transfected with siRNAs. Here is the method:
(§5) FIG. 9. […] A2780 cells were cultured for 6 hrs in the presence of drug concentrations as indicated. (B) Effects of siRNA targeting RPL11 (siRPL11), Chek2 (siChek2) or the unrelated luciferase (Luci) genes on RPL11 and Chek2 mRNA levels quantified by RT-PCR. (C) Effects of siRpl11 on Enone-2 and oxaliplatin (OXA)-induced p53 activation. Expression levels relative to GAPDH are indicated; untreated controls (CNT) were given the arbitrary value of 1. […] Expression levels relative to GAPDH are indicated; untreated controls (CNT) were given the arbitrary value of 1.
To further validate this observation, A2780 cells were transiently transfected with siRNAs targeting Chek2 which is required for DDR-induced p53, or Rpl11 which is required for RS-mediated p53 activation. The efficacy and specificity of the knockdowns were confirmed by RT-qPCR (FIG. 9B).

The subject of a further assay is γH2Ax. Nature of the assay: γH2Ax immunoblot (DNA damage response marker) in A2780 cells. It is filed as cell-based, human. The following applies: 6 hrs, increasing concentrations, relative to untreated controls. Here is the method: as §5

For `C[C@@]1(O)C=CC(=O)C1c1ccc2ccccc2c1` (stereo in doubt) [Enone-1, 4-hydroxy-4-methyl-5-(naphthalen-2-yl)cyclopent-2-en-1-one], the IC50 in assay [1] (Homo sapiens, Multiple myeloma cell) was 0.05 µM; in assay [2] (Homo sapiens, HCT-15, HCT15, colon), 1.2 µM; with HepG2 liver cells (Homo sapiens), 3.8 µM; in assay [3] (Homo sapiens) it was 1.2 µM; in [4] (Homo sapiens, HT-29, HT29, colon) it was 1.2 µM; in assay [5] (Homo sapiens, SK-OV-3, 48 hrs treatment), 0.8 µM. The IC50 in the assay on BRO melanoma cells (Homo sapiens) stood at 3.9 µM; in the assay on A549 lung cells (Homo sapiens), 1.7 µM; in assay [6] (Homo sapiens), 0.2 µM; in [7] (Homo sapiens), 0.6 µM; in assay [8] it was 1.8 µM; in assay [10] (Homo sapiens, Ovarian carcinoma cell) it was 1 µM. Moreover, the IC50 came out at 0.75 µM in assay [11] (Homo sapiens, A2780); 1.4 µM in assay [13]; 1.3 µM in assay [14] (Homo sapiens). Also, the “p53 accumulation (immunoblot)” value in the assay with p53 [9] is recorded as “induce p53”. The “sensitivity of 2780CP cells compared with cis-platin-sensitive A2780 cells” value in [11] is on record as “nearly as sensitive”; in [11] (listed as Enone1), “remain sensitive”. Besides, the “mdm2, p21, bax and bbc3/puma mRNA (p53-dependent gene expression)” value in assay [12] was “induce p53 and p53-dependent gene expression”.
As for `N.N.[Cl][Pt][Cl]` [cis-platin, reference compound], the IC50 in [15] is approximately 31 µM; in assay [15] (listed as Cis-platin), 31 µM; in assay [1], approximately 5.8 µM; in assay [1] (listed as Cis-platin), 5.8 µM; in assay [16], 32 µM; in [2] (HCT15, colon) it was 14 µM. The IC50 in the assay on HepG2 liver cells was 9 µM; in assay [3], 7.9 µM; in assay [4] (HT29, colon), 13.5 µM; in assay [5] (48 hrs treatment) it was 4 µM; in the assay on BRO melanoma cells, 15.2 µM; in the assay with A549 lung cells, 7.5 µM. Also, the IC50 is 1.4 µM in assay [6]; 1.4 µM in [7]; 5 µM in assay [10]; 10 µM in assay [11]; 3.8 µM in assay [13]; 19 µM in assay [14]. Moreover, in the assay with p53 [17], the “effect of Chek2 or Rpl11 siRNA knockdown on drug-induced p53 activation” value is “Chek2 knockdown ameliorated cis-platin-induced p53 activation”. In the assay on p53 [9], the “p53 accumulation (immunoblot)” value is “less effective”. The “γH2Ax induction (marker of DDR)” value in the assay with γH2Ax is on record as “induced γH2Ax”. For the same compound, the “sensitivity of 2780CP cells compared with cis-platin-sensitive A2780 cells” value in [11] is on record as “less sensitive”.
On to `O=C1[O][Pt]2([NH][C@@H]3CCCC[C@H]3[NH]2)[O]C1=O` [oxaliplatin, reference compound], for which, in the assay with p53 [17], the “effect of Chek2 or Rpl11 siRNA knockdown on drug-induced p53 activation” value is “depletion of Rpl11 reduced oxaliplatin-induced p53 accumulation”. The compound further yielded an IC50 in [6] of 0.27 µM.

The term IC50 denotes the point on the concentration scale where inhibition reaches its midpoint. High values mean a need for much substance, low ones inhibition by little substance.

For the origin of these results see US20250268844A1, “ANTICANCER AGENTS BASED ON CYCLOPENTENONES” (UNIVERSITY OF CRETE, priority 2022, published 2025).
